Measurements: US20240417410A1, “TRICYCLIC COMPOUNDS FOR THE TREATMENT OF CANCER” (Hoffmann-La Roche Inc., priority 2023, published 2024)
pIC50: −log10 of the molar value. Read-outs that look alike come from different tables or passages of the source.

Legend:
AGS cells (KRAS G12D) = assay: Cell viability assay (Cell Counting Kit-8, 3-day); type: cell-based, human; conditions: Homo sapiens, 72 h, 72 hrs incubation
Outline: (§1)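 Cells were seeded at 5,000 cells/well (NCI-H358) or 2,000 cells/well (AGS, SW620), incubated overnight, then treated with compounds in 0.5% DMSO final for 72 hrs. CCK-8 was added and OD450 minus OD650 read after 2 hrs; IC50 came from a 4-parameter sigmoidal fit.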

SW620 cells (KRAS G12V) = assay: Cell viability assay (Cell Counting Kit-8, 3-day); type: cell-based, human; conditions: Homo sapiens, SW-620; SW620, 72 hrs incubation
Outline: as §1

[1] = test system: NCI-H358 cells (KRAS G12C); assay: Cell viability assay (Cell Counting Kit-8, 3-day); type: cell-based, human; conditions: Homo sapiens, NCI-H358, 72 h, NCI-H358, 72 hrs incubation
Outline: as §1

HEC-1-A = assay: Cell proliferation, CTG 3D, 7 d; type: cell-based; conditions: Homo sapiens, KRAS (G12D)
Outline: (§2)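 Spheroids formed overnight in ultra-low-attachment plates are exposed for 7 days to a 9-dose, 3-fold compound series (0.2% DMSO). IC50 values derive from CTG 3D luminescence fits; for incomplete curves, values below the lowest or above the highest tested concentration are reported, or bottom fixed at 0%.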

NCI-H1915 = assay: Cell proliferation, CTG 3D, 7 d; type: cell-based; conditions: Homo sapiens
Outline: as §2

SK-N-AS = assay: Cell proliferation, CTG 3D, 7 d; type: cell-based; conditions: Homo sapiens
Outline: as §2

KU1919 = assay: Cell proliferation, CTG 3D, 7 d; type: cell-based; conditions: Homo sapiens, KU-19-19
Outline: as §2

LS1034 = assay: Cell proliferation, CTG 3D, 7 d; type: cell-based; conditions: Homo sapiens, LS-1034
Outline: as §2

Panc 02.13 = assay: Cell proliferation, CTG 3D, 7 d; type: cell-based; conditions: Homo sapiens
Outline: as §2

HepG2 = assay: Cell proliferation, CTG 3D, 7 d; type: cell-based; conditions: Homo sapiens
Outline: as §2

CFPAC-1 = assay: Cell proliferation, CTG 3D, 7 d; type: cell-based; conditions: Homo sapiens; CFPAC-1, KRAS (G12V)
Outline: as §2

RCM-1 = assay: Cell proliferation, CTG 3D, 7 d; type: cell-based; conditions: Homo sapiens; RCM-1, KRAS (G12V)
Outline: as §2

SW 480 = assay: Cell proliferation, CTG 3D, 7 d; type: cell-based; conditions: Homo sapiens, SW480; SW 480, KRAS (G12V)
Outline: as §2

MOLT-4 = assay: Cell proliferation, CTG 3D, 7 d; type: cell-based; conditions: Homo sapiens; MOLT-4, NRAS (p.G12C)
Outline: as §2

WT HRAS-BRAF complex = assay: WT HRAS-BRAF with CYPA interaction assay (TR-FRET); type: biochemical
Protocol: In this example, TR-FRET was used to measure the compound or compound-CYPA dependent disruption of the KRAS G12V-BRAF complex to assess inhibition efficacy. The IC50 ratio between WT KRAS/HRAS/NRAS and KRAS G12V mutant was calculated as selective index, which indicated tolerability and safety profile. Disruption of WT KRAS/HRAS/NRAS-BRAF complex by compounds was detected respectively. In assay buffer containing 25 mM HEPES (PH-7.4,4-(2-hydroxyethyl)-1-piperazineethanesulfonic acid, Thermo, 15630080), 0.002% Tween20, 0.1% BSA, 100 mM NaCl, 5 mM MgCl2, 10 μM GMPPNP (Guanosine 5′-[β,γ-imido]triphosphate trisodium salt hydrate, Sigma, G0635), tagless CYPA and GMPPNP loaded 6His-RAS proteins, and GST-BRAF^RBD were mixed in a well of a 384-well assay plate at final concentrations of 50 nM, 6.25 nM and 1 nM, respectively. Compound was present in plate wells as a 16-point 3-fold dilution series starting at a final concentration of 10 μM and incubated for 3 hours. A mixture of MAb Anti-6His-XL665 (Cisbio, 61HISXLB) and Mab anti-GST-TB cryptate (Cisbio, 61GSTTLB) was then added at a final concentration of 6.67 nM and 0.21 nM, respectively, and the plate was incubated for an additional 1.5 hours. TR-FRET signal was read on a PHERstar FSX microplate reader (Ex320 nm, Em 665/615 nm). Compounds that facilitate disruption of the RAS-BRAF complex were identified as those eliciting a decrease in the TR-FRET ratio relative to DMSO control wells.

Work on `CO[C@@H](C)c1ncc(N2CCN(C)CC2)cc1-c1c2c3cc(cc4c3n1CCC4)-c1csc(n1)C[C@H](NC(=O)[C@H]1[C@H](C)[C@@H]1C)C(=O)N1CCC[C@H](N1)C(=O)OCC(C)(C)C2` (atropisomer, axis not shown; (M)) [Example 24, (1r,2R,3S)-N-[(7S,13S)-(20M)-20-[2-[(1S)-1-methoxyethyl]-5-(4-methylpiperazin-1-yl)-3-pyridyl]-17,17-dimethyl-8,14-dioxo-15-oxa-4-thia-9,21,30,31-tetrazahexacyclo[23.3.1.1^2,5.1^9,13.0^19,27.0^21,26]hentriaconta-1 (28),2,5 (31), 19,25 (29),26-hexaen-7-yl]-2,3-dimethyl-cyclopropanecarboxamide] yielded a pIC50 (AGS cells (KRAS G12D)) of 8.33, a pIC50 (SW620 cells (KRAS G12V)) of 9.52 and a pIC50 [1] of 8.89. The pIC50 (HEC-1-A) was 8.80, the pIC50 (NCI-H1915; NCI-H1915, HRAS (p.Q61L), read-out: IC50) was 8.44 and the pIC50 (SK-N-AS; NRAS (p.Q61K), read-out: IC50) was 9.33. It also gave a pIC50 (KU1919; KU1919, NRAS (p.Q61R), read-out: IC50) of 8.66, a pIC50 (LS1034; LS1034, KRAS (A146T), read-out: IC50) of 7.92 and a pIC50 (Panc 02.13; Panc 02.13, KRAS (Q61R), read-out: IC50) of 8.40. The pIC50 (HepG2; HepG2, NRAS (p.Q61L), read-out: IC50) was 8.68, the pIC50 (CFPAC-1) was 9.27 and the pIC50 (RCM-1) was 8.66. For the same molecule, the pIC50 (SW 480) was 8.92, the pIC50 (MOLT-4) was 6.00 and the “Selectivity Index (IC50 ratio) WT HRAS/KRAS G12V” value (WT HRAS-BRAF complex) was 5.4.
`CCn1c(-c2cc(N3CCN(C)CC3)cnc2[C@H](C)OC)c2c3cc(ccc31)-c1csc(n1)C[C@H](NC(=O)[C@H]1C[C@@H]1C)C(=O)N1CCC[C@H](N1)C(=O)OCC(C)(C)O2` [Example A122, reference compound] gave a pIC50 (HEC-1-A) of 8.72, a pIC50 (NCI-H1915; NCI-H1915) of 8.00 and a pIC50 (SK-N-AS) of 8.72. It also gave a pIC50 (KU1919) of 8.55, a pIC50 (LS1034) of 8.14 and a pIC50 (Panc 02.13) of 7.82. It also gave a pIC50 (HepG2; HepG2) of 8.26, a pIC50 (CFPAC-1) of 8.96 and a pIC50 (RCM-1) of 8.19. For the same molecule, the pIC50 (SW 480) was 8.70 and the pIC50 (MOLT-4) was 6.00.
